Data taken from patent publication US20250115590A1, “MATRIX METALLOPROTEINASE (MMP) INHIBITORS AND METHODS OF USE THEREOF” (Foresee Pharmaceuticals USA, Inc., priority 2018, published 2025).
Where two headings read alike, the source gives them in different places.

How the values were obtained:
Type in all cases: biochemical
[1] = target: recombinant human MMP-13 (Homo sapiens (Human), UniProt P45452); experiment: MMP selectivity assay, MMP-13; conditions: Table 2 selectivity profile; read-out: MMP-13 Activity (IC50 class)
Method: (§1) The inhibitory effect of compounds on the rate of cleaving fluorogenic MMP substrate (Enzo, BML-P128) by recombinant human MMP-12 catalytic domain (Enzo, BML-SE138) was carried out by methods known in the art. Briefly, to each well of a 96-well black opaque plate, all the reagents were sequentially added by pipetting, and the final reaction contained 4 nM of recombinant human MMP-12 catalytic domain, […] of fluorogenic MMP substrate, and various concentrations (0.15 nM to 10,000 nM) of tested compound dilutions in HEPES buffer (pH 7.5) containing 10 mM of CaCl2, 0.01% Brij® 35 (polyoxyethylene (23) lauryl ether), and 0.1 mg/ml of BSA.
(§2) The enzyme and compounds were pre-incubated on a shaker to mix in wells. After an hour of mixing, fluorogenic substrate was added to each well. Reaction without enzyme was used as a blank control in the plate. The plate was then fed into a plate reader to measure fluorescence intensity at Excitation/Emission wavelengths of 340 nm/440 nm every 10 mins for at least 1 hour at 37° C. The IC50 of each compound in MMP-12 inhibition was determined by using a readout obtained at time point 30 minutes.
(§3) The MMP selectivity assay was performed by using other recombinant human MMPs, including MMP-1, MMP-2, MMP-3, MMP-7, MMP-8, MMP-9, MMP-10, MMP-13, and MMP-14. The IC50 of the compounds for the other recombinant human MMPs was determined as described above in Example 1, and are shown in Table 2.

[2] = target: recombinant human MMP-12 catalytic domain (Homo sapiens (Human), UniProt P39900); experiment: MMP-12 inhibitory assay (fluorogenic substrate cleavage)
Chain of recombinant human MMP-12 catalytic domain (P39900 106-268): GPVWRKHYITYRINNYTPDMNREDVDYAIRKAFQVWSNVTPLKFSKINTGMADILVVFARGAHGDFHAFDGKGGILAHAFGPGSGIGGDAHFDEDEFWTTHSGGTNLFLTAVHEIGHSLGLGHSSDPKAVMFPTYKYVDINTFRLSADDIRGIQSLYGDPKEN
Method: as §1, §2

[3] = target: recombinant human MMP-8 (Homo sapiens (Human), UniProt P22894); experiment: MMP selectivity assay, MMP-8; conditions: Table 2 selectivity profile; read-out: MMP-8 Activity (IC50 class)
Chain of recombinant human MMP-8 (P22894 101-467): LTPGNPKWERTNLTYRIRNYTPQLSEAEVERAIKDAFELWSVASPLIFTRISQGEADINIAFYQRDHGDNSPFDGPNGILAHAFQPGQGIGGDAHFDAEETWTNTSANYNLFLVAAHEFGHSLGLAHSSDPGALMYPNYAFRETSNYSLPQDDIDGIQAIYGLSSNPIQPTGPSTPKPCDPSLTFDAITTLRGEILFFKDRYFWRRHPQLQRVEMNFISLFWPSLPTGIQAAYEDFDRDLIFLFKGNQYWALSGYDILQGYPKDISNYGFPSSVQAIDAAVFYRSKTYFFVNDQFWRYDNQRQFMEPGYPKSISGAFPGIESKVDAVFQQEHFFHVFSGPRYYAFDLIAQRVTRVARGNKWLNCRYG
Method: as §1, §2, §3

[4] = target: recombinant human MMP-3 (Homo sapiens (Human), UniProt P08254); experiment: MMP selectivity assay, MMP-3; conditions: Table 2 selectivity profile; read-out: MMP-3 Activity (IC50 class)
Chain of recombinant human MMP-3 (P08254 100-477): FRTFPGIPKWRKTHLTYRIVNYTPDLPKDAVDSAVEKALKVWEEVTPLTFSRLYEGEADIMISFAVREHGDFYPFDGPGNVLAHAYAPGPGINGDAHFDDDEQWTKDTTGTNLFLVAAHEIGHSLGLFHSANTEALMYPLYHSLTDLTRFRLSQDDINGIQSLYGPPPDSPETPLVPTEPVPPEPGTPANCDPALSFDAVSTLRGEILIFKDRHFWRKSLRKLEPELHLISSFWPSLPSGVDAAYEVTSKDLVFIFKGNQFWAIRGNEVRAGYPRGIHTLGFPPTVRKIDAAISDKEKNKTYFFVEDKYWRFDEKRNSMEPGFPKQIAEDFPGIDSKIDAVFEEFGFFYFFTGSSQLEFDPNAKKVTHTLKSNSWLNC
Method: as §1, §2, §3

[5] = target: recombinant human MMP-9 (Homo sapiens (Human), UniProt P14780); experiment: MMP selectivity assay, MMP-9; conditions: Table 2 selectivity profile; read-out: MMP-9 Activity (IC50 class)
Chain of recombinant human MMP-9 (P14780 94-707): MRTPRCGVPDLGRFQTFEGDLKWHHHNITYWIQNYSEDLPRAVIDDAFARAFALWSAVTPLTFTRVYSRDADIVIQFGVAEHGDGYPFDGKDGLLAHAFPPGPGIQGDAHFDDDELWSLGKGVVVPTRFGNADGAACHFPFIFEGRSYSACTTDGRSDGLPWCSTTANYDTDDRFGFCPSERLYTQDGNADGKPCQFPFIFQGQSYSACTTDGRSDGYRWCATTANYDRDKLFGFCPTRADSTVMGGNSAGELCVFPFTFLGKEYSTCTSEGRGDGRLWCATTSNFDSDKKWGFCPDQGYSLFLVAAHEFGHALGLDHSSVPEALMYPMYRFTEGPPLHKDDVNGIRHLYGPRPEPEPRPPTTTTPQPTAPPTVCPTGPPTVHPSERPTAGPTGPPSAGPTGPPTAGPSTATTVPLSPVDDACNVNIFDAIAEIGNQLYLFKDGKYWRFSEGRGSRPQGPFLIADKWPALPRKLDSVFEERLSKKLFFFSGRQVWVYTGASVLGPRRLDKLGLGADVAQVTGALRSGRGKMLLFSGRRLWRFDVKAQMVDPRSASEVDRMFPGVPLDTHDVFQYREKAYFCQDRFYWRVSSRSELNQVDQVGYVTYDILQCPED
Method: as §1, §2, §3

[6] = target: recombinant human MMP-2 (Homo sapiens (Human), UniProt P08253); experiment: MMP selectivity assay, MMP-2; conditions: Table 2 selectivity profile; read-out: MMP-2 Activity (IC50 class)
Chain of recombinant human MMP-2 (P08253 110-660): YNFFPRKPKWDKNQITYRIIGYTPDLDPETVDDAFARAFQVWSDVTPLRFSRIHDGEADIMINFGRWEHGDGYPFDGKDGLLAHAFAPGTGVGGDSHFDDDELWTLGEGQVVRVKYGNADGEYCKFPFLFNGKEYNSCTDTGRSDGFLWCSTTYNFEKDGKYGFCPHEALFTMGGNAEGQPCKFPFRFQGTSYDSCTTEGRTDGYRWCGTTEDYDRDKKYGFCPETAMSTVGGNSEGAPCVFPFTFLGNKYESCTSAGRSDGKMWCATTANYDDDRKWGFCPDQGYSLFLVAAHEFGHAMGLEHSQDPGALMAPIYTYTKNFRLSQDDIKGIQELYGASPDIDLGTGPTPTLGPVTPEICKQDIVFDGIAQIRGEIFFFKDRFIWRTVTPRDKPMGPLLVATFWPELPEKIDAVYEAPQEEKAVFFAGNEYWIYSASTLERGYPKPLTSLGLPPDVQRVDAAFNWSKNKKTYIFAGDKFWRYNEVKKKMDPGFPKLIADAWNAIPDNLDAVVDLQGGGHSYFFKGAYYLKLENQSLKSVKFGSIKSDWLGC
Method: as §1, §2, §3

[7] = target: recombinant human MMP-14 (Homo sapiens (Human), UniProt P50281); experiment: MMP selectivity assay, MMP-14; conditions: Table 2 selectivity profile; read-out: MMP-14 Activity (IC50 class)
Method: as §1, §2, §3

[8] = target: recombinant human MMP-10 (Homo sapiens (Human), UniProt P09238); experiment: MMP selectivity assay, MMP-10; conditions: Table 2 selectivity profile; read-out: MMP-10 Activity (IC50 class)
Chain of recombinant human MMP-10 (P09238 99-476): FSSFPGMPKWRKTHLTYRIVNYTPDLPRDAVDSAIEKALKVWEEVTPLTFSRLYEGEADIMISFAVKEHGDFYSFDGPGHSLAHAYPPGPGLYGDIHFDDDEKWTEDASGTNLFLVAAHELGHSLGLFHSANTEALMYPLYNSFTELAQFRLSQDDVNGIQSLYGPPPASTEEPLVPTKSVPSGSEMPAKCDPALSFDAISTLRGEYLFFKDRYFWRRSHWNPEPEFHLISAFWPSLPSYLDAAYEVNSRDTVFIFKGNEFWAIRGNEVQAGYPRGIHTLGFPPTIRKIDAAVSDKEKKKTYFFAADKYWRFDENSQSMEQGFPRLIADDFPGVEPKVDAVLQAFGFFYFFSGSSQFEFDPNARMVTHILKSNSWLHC
Method: as §1, §2, §3

[9] = target: recombinant human MMP-7 (Homo sapiens (Human), UniProt P09237); experiment: MMP selectivity assay, MMP-7; conditions: Table 2 selectivity profile; read-out: MMP-7 Activity (IC50 class)
Chain of recombinant human MMP-7 (P09237 95-267): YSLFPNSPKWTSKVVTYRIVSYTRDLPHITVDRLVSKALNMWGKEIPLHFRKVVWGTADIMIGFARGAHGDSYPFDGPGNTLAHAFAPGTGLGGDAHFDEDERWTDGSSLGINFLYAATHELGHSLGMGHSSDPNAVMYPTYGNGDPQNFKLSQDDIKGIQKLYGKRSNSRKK
Method: as §1
The enzyme and compounds were pre-incubated on a shaker to mix in wells. After an hour of mixing, fluorogenic substrate was added to each well. […] The plate was then fed into a plate reader to measure fluorescence intensity at Excitation/Emission wavelengths of 340 nm/440 nm every 10 mins for at least 1 hour at 37° C. The IC50 of each compound in MMP-12 inhibition was determined by using a readout obtained at time point 30 minutes.
as §3

[10] = Table 2 selectivity profile, read-out: MMP-12 Activity (IC50 class)
[11] = readout at 30 minutes, 37° C., pH 7.5, Table 1, read-out: MMP-12 IC50

| Structure (SMILES) | IC50 [2, 10] [µM] | IC50 [2, 11] [µM] | IC50 [5] [µM] | IC50 [6] [µM] | IC50 [8] [µM] | further results |
| --- | --- | --- | --- | --- | --- | --- |
| O=C1NC(=O)C(c2cnccc2Sc2ccc(OCc3cccc(O)c3)cc2)N1 (stereo not shown) [PC-10] | < 0.01 | < 0.01 | > 1 | > 1 | – | IC50 [1]: > 1 µM; IC50 [3]: > 1 µM; IC50 [4]: > 1 µM |
| O=C1NC(=O)C(c2cnccc2Sc2ccc(OCc3cncc(C(=O)O)c3)cc2)N1 (stereo not shown) [PC-21] | – | > 1 | – | – | – | – |
| O=C1NC(=O)C(c2sccc2Sc2ccc(OCc3cccc(CO)c3)cc2)N1 (stereo not shown) [TC4] | < 0.01 | < 0.01 | > 1 | > 1 | > 1 | IC50 [7]: > 1 µM; IC50 [1]: > 1 µM |
| Cc1cc(COc2ccc(Sc3ccncc3C3NC(=O)NC3=O)cc2C)ccn1 (stereo not shown) [PC-48] | < 0.01 | < 0.01 | > 1 | > 1 | > 1 | IC50 [3]: > 1 µM; IC50 [4]: > 1 µM |
| Cc1cc(COc2ccc(Sc3cnn(C)c3C3NC(=O)NC3=O)cc2)ccn1 (stereo not shown) [OC-12] | < 0.01 | < 0.01 | > 1 | – | > 1 | IC50 [7]: > 1 µM; IC50 [4]: > 1 µM |
| O=C1NC(=O)C(c2cnccc2Sc2ccc(OCc3ccnc(C(=O)O)c3)cc2)N1 (stereo not shown) [PC-20] | – | > 1 | – | – | – | – |
| Cc1cccc(OCc2ccc(Sc3ccncc3C3NC(=O)NC3=O)cc2)c1 (stereo not shown) [PC-43] | – | > 1 | – | – | – | – |
| NC(=O)c1cccc(COc2ccc(Sc3ccncc3C3NC(=O)NC3=O)cc2)c1 (stereo not shown) [PC-28] | < 0.01 | < 0.01 | > 1 | > 1 | > 1 | IC50 [7]: > 1 µM; IC50 [4]: > 1 µM |
| NC(=O)c1ccncc1COc1ccc(Sc2ccncc2C2NC(=O)NC2=O)cc1 (stereo not shown) [PC-38] | – | > 1 | – | – | – | – |
| NC(=O)c1cc(COc2ccc(Sc3cnccc3C3NC(=O)NC3=O)cc2)ccn1 (stereo not shown) [PC-59] | – | 0.1 to 1 | – | – | – | – |
| O=C1NC(=O)C(c2ccncc2Sc2ccc(OCc3cccc(O)c3)cc2)N1 (stereo not shown) [PC-15] | – | < 0.01 | – | – | – | – |
| Cc1cc(COc2ccc(Sc3cnccc3C3NC(=O)NC3=O)cc2)ccn1 (stereo not shown) [PC-18] | – | < 0.01 | – | – | – | – |
| O=C1NC(=O)C(c2ccncc2Sc2ccc(OCc3ccccc3CO)cc2)N1 (stereo not shown) [PC-12] | < 0.01 | < 0.01 | > 1 | > 1 | > 1 | IC50 [3]: > 1 µM |
| CCC1(c2ccncc2Sc2ccc(OCc3ccnc(C)c3)cc2)NC(=O)NC1=O (stereo not shown) [PC-64] | – | < 0.01 | – | – | – | – |
| Cc1cc(COc2ccc(Sc3ocnc3C3NC(=O)NC3=O)cc2)ccn1 (stereo not shown) [OC-11] | – | > 1 | – | – | – | – |
| CCC1(c2cnccc2Sc2ccc(OCc3cccc(C)c3)cc2)NC(=O)NC1=O (stereo not shown) [PC-22] | < 0.01 | < 0.01 | > 1 | > 1 | > 1 | IC50 [7]: > 1 µM; IC50 [3]: > 1 µM |

| Structure (SMILES) | IC50 [2, 10] [µM] | IC50 [2, 11] [µM] | IC50 [5] [µM] | IC50 [6] [µM] | IC50 [8] [µM] | further results |
| --- | --- | --- | --- | --- | --- | --- |
| O=C1NC(=O)C(c2cnccc2Sc2ccc(OCc3cccc(CO)c3)cc2)N1 (stereo not shown) [PC-8] | < 0.01 | < 0.01 | – | > 1 | – | IC50 [1]: > 1 µM; IC50 [4]: > 1 µM |
| CCC1(c2cnccc2Sc2ccc(OCc3ccnc(C)c3)cc2)NC(=O)NC1=O (stereo not shown) [PC-63] | – | < 0.01 | – | – | – | – |
| O=C1NC(=O)C(c2cnccc2Sc2ccc(OCc3ccnc(CO)c3)cc2)N1 (stereo not shown) [PC-40] | – | < 0.01 | – | – | – | – |
| O=C1NC(=O)C(c2ccncc2Sc2ccc(OCc3cncc(CO)c3)cc2)N1 (stereo not shown) [PC-47] | – | > 1 | – | – | – | – |
| O=C1NC(=O)C(c2sccc2Sc2ccc(OCc3ccccc3CO)cc2)N1 (stereo not shown) [TC5] | < 0.01 | < 0.01 | > 1 | > 1 | > 1 | IC50 [3]: > 1 µM; IC50 [4]: > 1 µM |
| Cc1cc(COc2ccc(Sc3ccncc3C3NC(=O)NC3=O)c(Cl)c2)ccn1 (stereo not shown) [PC-51] | < 0.01 | < 0.01 | > 1 | > 1 | > 1 | IC50 [7]: > 1 µM; IC50 [9]: > 1 µM; IC50 [4]: > 1 µM |
| O=C1NC(=O)C(c2sccc2Sc2ccc(OCc3ccc(CO)cc3)cc2)N1 (stereo not shown) [TC6] | – | < 0.01 | – | – | – | – |
| Cc1cc(COc2ccc(Sc3ccncc3C3C(=O)N(C)C(=O)N3C)cc2)ccn1 (stereo not shown) [PC-54] | – | > 1 | – | – | – | – |
| O=C1NC(=O)C(c2ccncc2Sc2ccc(OCc3cncc(C(=O)O)c3)cc2)N1 (stereo not shown) [PC-24] | – | > 1 | – | – | – | – |
| Cc1cc(COc2ccc(Sc3ccncc3C3(C)C(=O)N(C)C(=O)N3C)cc2)ccn1 (stereo not shown) [PC-46] | – | > 1 | – | – | – | – |
| O=C1NC(=O)C(c2ccncc2Sc2ccc(OCc3cccc(CO)c3)cc2)N1 (stereo not shown) [PC-13] | < 0.01 | < 0.01 | > 1 | > 1 | > 1 | IC50 [1]: > 1 µM; IC50 [3]: > 1 µM |
| Cc1cc(COc2ccc(Sc3ccncc3C3NC(=O)NC3=O)c(F)c2)ccn1 (stereo not shown) [PC-50] | < 0.01 | < 0.01 | > 1 | – | > 1 | IC50 [7]: > 1 µM |
| Cc1cc(COc2ccc(Sc3ncn(C)c3C3NC(=O)NC3=O)cc2)ccn1 (stereo not shown) [OC-13] | < 0.01 | < 0.01 | > 1 | – | > 1 | IC50 [4]: > 1 µM |
| Cc1cc(COc2ccc(Sc3ccsc3C3NC(=O)NC3=O)cc2)ccn1 (stereo not shown) [TC8] | < 0.01 | < 0.01 | – | – | – | IC50 [9]: > 1 µM |
| O=C1NC(=O)C(c2sccc2Sc2ccc(OCc3cccc(O)c3)cc2)N1 (stereo not shown) [TC7] | – | < 0.01 | – | – | – | – |
| Cc1cc(COc2ccc(Sc3ncoc3C3NC(=O)NC3=O)cc2)ccn1 (stereo not shown) [OC-7] | < 0.01 | < 0.01 | > 1 | – | > 1 | IC50 [4]: > 1 µM |
